Data reported in US10792289B2 (Horizon Orphan LLC, priority 2009, dated 2020).

Test system: S. aureus
Test: Phase 2 study: presumptive S. aureus density in sputum
Type: in vivo, human
Method: The following dosage regimens (as nebulizer loaded doses) were evaluated: 120 mg QD (daily); 240 mg QD (daily); and 240 mg BID (twice daily).
Patients were assessed on Day 1, 7, 14, and 28, and then up to 28 days after completion of study drug, namely, Days 42 and 56. The end of the study was defined as the last visit of the last patient.

[1] = EE population, Combined 240 mg QD and BID
[2] = EE population, Combined Levofloxacin
[3] = Table 21 (EE population), 120 mg QD
[4] = Table 21 (EE population), 240 mg BID
[5] = Table 21 (EE population), 240 mg QD
[6] = Table 21 (EE population), Combined 240 mg QD and BID
[7] = Table 21 (EE population), Combined Levofloxacin

C[C@H]1COc2c(N3CCN(C)CC3)c(F)cc3c(=O)c(C(=O)O)cn1c23 [Levofloxacin, levofloxacin]
presumptive S. aureus density, Change from Baseline to Day 7, Mean (EE population, 120 mg QD): −1.19 log10 CFU/g sputum
presumptive S. aureus density, Day 1, Mean (EE population, 120 mg QD): 5.72 log10 CFU/g sputum
presumptive S. aureus density, Day 7, Mean (EE population, 120 mg QD): 4.53 log10 CFU/g sputum
presumptive S. aureus density, Day 14, Mean (EE population, 120 mg QD): 5.30 log10 CFU/g sputum
presumptive S. aureus density, Day 28, Mean (EE population, 120 mg QD): 5.31 log10 CFU/g sputum
presumptive S. aureus density, Change from Baseline to Day 28, Mean (EE population, 120 mg QD, Day 14): −0.42 log10 CFU/g sputum
presumptive S. aureus density, Change from Baseline to Day 28, Mean (EE population, 120 mg QD, Day 28): −0.41 log10 CFU/g sputum
presumptive S. aureus density, Change from Baseline to Day 7, Mean (EE population, 240 mg BID): −0.72 log10 CFU/g sputum
presumptive S. aureus density, Day 1, Mean (EE population, 240 mg BID): 5.68 log10 CFU/g sputum
presumptive S. aureus density, Day 7, Mean (EE population, 240 mg BID): 4.96 log10 CFU/g sputum
presumptive S. aureus density, Day 14, Mean (EE population, 240 mg BID): 4.70 log10 CFU/g sputum
presumptive S. aureus density, Day 28, Mean (EE population, 240 mg BID): 5.42 log10 CFU/g sputum
presumptive S. aureus density, Change from Baseline to Day 28, Mean (EE population, 240 mg BID, Day 14): −0.98 log10 CFU/g sputum
presumptive S. aureus density, Change from Baseline to Day 28, Mean (EE population, 240 mg BID, Day 28): −0.38 log10 CFU/g sputum
presumptive S. aureus density, Change from Baseline to Day 7, Mean (EE population, 240 mg QD): −0.30 log10 CFU/g sputum
presumptive S. aureus density, Day 1, Mean (EE population, 240 mg QD): 5.64 log10 CFU/g sputum
presumptive S. aureus density, Day 7, Mean (EE population, 240 mg QD): 5.34 log10 CFU/g sputum
presumptive S. aureus density, Day 14, Mean (EE population, 240 mg QD): 5.14 log10 CFU/g sputum
presumptive S. aureus density, Day 28, Mean (EE population, 240 mg QD): 4.56 log10 CFU/g sputum
presumptive S. aureus density, Change from Baseline to Day 28, Mean (EE population, 240 mg QD, Day 14): −0.50 log10 CFU/g sputum
presumptive S. aureus density, Change from Baseline to Day 28, Mean (EE population, 240 mg QD, Day 28): −1.08 log10 CFU/g sputum
presumptive S. aureus density, Change from Baseline to Day 7, Mean [1]: −0.47 log10 CFU/g sputum
presumptive S. aureus density, Day 1, Mean [1]: 5.65 log10 CFU/g sputum
presumptive S. aureus density, Day 7, Mean [1]: 5.18 log10 CFU/g sputum
presumptive S. aureus density, Day 14, Mean [1]: 4.96 log10 CFU/g sputum
presumptive S. aureus density, Day 28, Mean [1]: 4.89 log10 CFU/g sputum
presumptive S. aureus density, Change from Baseline to Day 28, Mean (EE population, Combined 240 mg QD and BID, Day 14): −0.69 log10 CFU/g sputum
presumptive S. aureus density, Change from Baseline to Day 28, Mean (EE population, Combined 240 mg QD and BID, Day 28): −0.81 log10 CFU/g sputum
presumptive S. aureus density, Change from Baseline to Day 7, Mean [2]: −0.71 log10 CFU/g sputum
presumptive S. aureus density, Day 1, Mean [2]: 5.68 log10 CFU/g sputum
presumptive S. aureus density, Day 7, Mean [2]: 4.97 log10 CFU/g sputum
presumptive S. aureus density, Day 14, Mean [2]: 5.08 log10 CFU/g sputum
presumptive S. aureus density, Day 28, Mean [2]: 5.04 log10 CFU/g sputum
presumptive S. aureus density, Change from Baseline to Day 28, Mean (EE population, Combined Levofloxacin, Day 14): −0.60 log10 CFU/g sputum
presumptive S. aureus density, Change from Baseline to Day 28, Mean (EE population, Combined Levofloxacin, Day 28): −0.67 log10 CFU/g sputum
presumptive S. aureus density, Change from Baseline to Day 7, Mean [3]: −1.14 log10 CFU/g sputum
presumptive S. aureus density, Day 1, Mean [3]: 5.89 log10 CFU/g sputum
presumptive S. aureus density, Day 7, Mean [3]: 4.75 log10 CFU/g sputum
presumptive S. aureus density, Day 14, Mean [3]: 5.48 log10 CFU/g sputum
presumptive S. aureus density, Day 28, Mean [3]: 5.49 log10 CFU/g sputum
presumptive S. aureus density, Change from Baseline to Day 28, Mean (Table 21 (EE population), 120 mg QD, Day 14): −0.41 log10 CFU/g sputum
presumptive S. aureus density, Change from Baseline to Day 28, Mean (Table 21 (EE population), 120 mg QD, Day 28): −0.41 log10 CFU/g sputum
presumptive S. aureus density, Change from Baseline to Day 7, Mean [4]: −0.66 log10 CFU/g sputum
presumptive S. aureus density, Day 1, Mean [4]: 5.51 log10 CFU/g sputum
presumptive S. aureus density, Day 7, Mean [4]: 4.65 log10 CFU/g sputum
presumptive S. aureus density, Day 14, Mean [4]: 4.32 log10 CFU/g sputum
presumptive S. aureus density, Day 28, Mean [4]: 4.95 log10 CFU/g sputum
presumptive S. aureus density, Change from Baseline to Day 28, Mean (Table 21 (EE population), 240 mg BID, Day 14): −0.99 log10 CFU/g sputum
presumptive S. aureus density, Change from Baseline to Day 28, Mean (Table 21 (EE population), 240 mg BID, Day 28): −0.44 log10 CFU/g sputum
presumptive S. aureus density, Change from Baseline to Day 7, Mean [5]: −0.40 log10 CFU/g sputum
presumptive S. aureus density, Day 1, Mean [5]: 5.63 log10 CFU/g sputum
presumptive S. aureus density, Day 7, Mean [5]: 5.23 log10 CFU/g sputum
presumptive S. aureus density, Day 14, Mean [5]: 4.97 log10 CFU/g sputum
presumptive S. aureus density, Day 28, Mean [5]: 4.48 log10 CFU/g sputum
presumptive S. aureus density, Change from Baseline to Day 28, Mean (Table 21 (EE population), 240 mg QD, Day 14): −0.66 log10 CFU/g sputum
presumptive S. aureus density, Change from Baseline to Day 28, Mean (Table 21 (EE population), 240 mg QD, Day 28): −1.15 log10 CFU/g sputum
presumptive S. aureus density, Change from Baseline to Day 7, Mean [6]: −0.51 log10 CFU/g sputum
presumptive S. aureus density, Day 1, Mean [6]: 5.58 log10 CFU/g sputum
presumptive S. aureus density, Day 7, Mean [6]: 4.99 log10 CFU/g sputum
presumptive S. aureus density, Day 14, Mean [6]: 4.70 log10 CFU/g sputum
presumptive S. aureus density, Day 28, Mean [6]: 4.66 log10 CFU/g sputum
presumptive S. aureus density, Change from Baseline to Day 28, Mean (Table 21 (EE population), Combined 240 mg QD and BID, Day 14): −0.80 log10 CFU/g sputum
presumptive S. aureus density, Change from Baseline to Day 28, Mean (Table 21 (EE population), Combined 240 mg QD and BID, Day 28): −0.87 log10 CFU/g sputum
presumptive S. aureus density, Change from Baseline to Day 7, Mean [7]: −0.71 log10 CFU/g sputum
presumptive S. aureus density, Day 1, Mean [7]: 5.68 log10 CFU/g sputum
presumptive S. aureus density, Day 7, Mean [7]: 4.91 log10 CFU/g sputum
presumptive S. aureus density, Day 14, Mean [7]: 4.95 log10 CFU/g sputum
presumptive S. aureus density, Day 28, Mean [7]: 4.93 log10 CFU/g sputum
presumptive S. aureus density, Change from Baseline to Day 28, Mean (Table 21 (EE population), Combined Levofloxacin, Day 14): −0.68 log10 CFU/g sputum
presumptive S. aureus density, Change from Baseline to Day 28, Mean (Table 21 (EE population), Combined Levofloxacin, Day 28): −0.72 log10 CFU/g sputum
